From PMC9389462, “Small molecule MMRi62 targets MDM4 for degradation and induces leukemic cell apoptosis regardless of p53 status” (Frontiers in Oncology, 2022)

Biological target: T1, MDM4 (Homo sapiens, UniProt O15151+Q00987)
T1 construct: RING domain (MDM2-MDM4 RING heterodimer, pETDuet, E. coli); with MDM2 (RING domain)
Experiment: microscale thermophoresis on preformed, dye-labelled MDM2-MDM4 RING heterodimer
Assay type: binding

T1 sequence (O15151 416-490 limits assumed): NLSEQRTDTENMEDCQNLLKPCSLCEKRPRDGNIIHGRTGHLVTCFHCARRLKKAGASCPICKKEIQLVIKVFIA
T1 sequence (Q00987 430-491 limits assumed): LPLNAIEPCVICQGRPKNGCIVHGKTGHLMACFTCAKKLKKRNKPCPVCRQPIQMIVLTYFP

Row | SMILES | Kd [nM]
1 | Oc1c(C(Nc2ccccn2)c2cccc(Cl)c2Cl)ccc2cccnc12 (racemic) [MMRi62] | ~140
2 | O=C(O)c1ccc(C(Nc2ccccn2)c2cc(Cl)c3cccnc3c2O)cc1 (racemic) [MMRi67] | ~896
